# Laboratory results as given in patent US9944646B2, “Bicyclic azaheterocyclobenzylamines as PI3K inhibitors” (Incyte Corporation, priority 2012, dated 2018).
# Target: PI3Kδ (Homo sapiens (Human), UniProt O00329)
# Experiment: PI3K Enzyme Assay (Example A2), [γ-33P]ATP filter plate
# Format: biochemical
# Method: Example A2: PI3K Enzyme Assay
# Lipid kinase substrate, phosphoinositol-4,5-bisphosphate (PIP2), are purchased from Echelon Biosciences (Salt Lake City, Utah). PI3K isoforms α, β, δ and γ are purchased from Millipore (Bedford, Mass.). ATP, MgCl2, DTT, EDTA, MOPS and CHAPS are purchased from Sigma-Aldrich (St. Louis, Mo.).
# The kinase reaction are conducted in clear-bottom 96-well plate from Thermo Fisher Scientific in a final volume of 24 μL. Inhibitors are first diluted serially in DMSO and added to the plate wells before the addition of other reaction components. The final concentration of DMSO in the assay is 0.5%. The PI3K assays are carried out at room temperature in 20 mM MOPS, pH 6.7, 10 mM MgCl2, 5 mM DTT and CHAPS 0.03%. The reaction mixture is prepared containing 50 µM PIP2, kinase and varying concentration of inhibitors. Reactions are initiated by the addition of ATP containing 2.2 μCi [γ-^33P]ATP to a final concentration of 1000 μM. The final concentration of PI3K isoforms α, β, δ and γ in the assay were 1.3, 9.4, 2.9 and 10.8 nM, respectively. Reactions are incubated for 180 minutes and terminated by the addition of 100 μL of 1 M potassium phosphate pH 8.0, 30 mM EDTA quench buffer. A 100 μL aliquot of the reaction solution are then transferred to 96-well Millipore MultiScreen IP […] PVDF filter plate (The filter plate is prewetted with 200 μL 100% ethanol, distilled water, and 1 M potassium phosphate pH 8.0, respectively). The filter plate is aspirated on a Millipore Manifold under vacuum and washed with 18×200 μL wash buffer containing 1 M potassium phosphate pH 8.0 and 1 mM ATP. After drying by aspiration and blotting, the plate is air dried in an incubator at 37° C. overnight. Packard TopCount adapter (Millipore) is then attached to the plate followed with addition of 120 μL Microscint 20 scintillation cocktail (Perkin Elmer) in each well. After the plate sealing, the radioactivity of the product is determined by scintillation counting on Topcount (Perkin-Elmer). IC50 determination is performed by fitting the curve of percent control activity versus the log of the inhibitor concentration using the GraphPad Prism 3.0 software.
# PI3Kδ, sequence (O00329 whole entry): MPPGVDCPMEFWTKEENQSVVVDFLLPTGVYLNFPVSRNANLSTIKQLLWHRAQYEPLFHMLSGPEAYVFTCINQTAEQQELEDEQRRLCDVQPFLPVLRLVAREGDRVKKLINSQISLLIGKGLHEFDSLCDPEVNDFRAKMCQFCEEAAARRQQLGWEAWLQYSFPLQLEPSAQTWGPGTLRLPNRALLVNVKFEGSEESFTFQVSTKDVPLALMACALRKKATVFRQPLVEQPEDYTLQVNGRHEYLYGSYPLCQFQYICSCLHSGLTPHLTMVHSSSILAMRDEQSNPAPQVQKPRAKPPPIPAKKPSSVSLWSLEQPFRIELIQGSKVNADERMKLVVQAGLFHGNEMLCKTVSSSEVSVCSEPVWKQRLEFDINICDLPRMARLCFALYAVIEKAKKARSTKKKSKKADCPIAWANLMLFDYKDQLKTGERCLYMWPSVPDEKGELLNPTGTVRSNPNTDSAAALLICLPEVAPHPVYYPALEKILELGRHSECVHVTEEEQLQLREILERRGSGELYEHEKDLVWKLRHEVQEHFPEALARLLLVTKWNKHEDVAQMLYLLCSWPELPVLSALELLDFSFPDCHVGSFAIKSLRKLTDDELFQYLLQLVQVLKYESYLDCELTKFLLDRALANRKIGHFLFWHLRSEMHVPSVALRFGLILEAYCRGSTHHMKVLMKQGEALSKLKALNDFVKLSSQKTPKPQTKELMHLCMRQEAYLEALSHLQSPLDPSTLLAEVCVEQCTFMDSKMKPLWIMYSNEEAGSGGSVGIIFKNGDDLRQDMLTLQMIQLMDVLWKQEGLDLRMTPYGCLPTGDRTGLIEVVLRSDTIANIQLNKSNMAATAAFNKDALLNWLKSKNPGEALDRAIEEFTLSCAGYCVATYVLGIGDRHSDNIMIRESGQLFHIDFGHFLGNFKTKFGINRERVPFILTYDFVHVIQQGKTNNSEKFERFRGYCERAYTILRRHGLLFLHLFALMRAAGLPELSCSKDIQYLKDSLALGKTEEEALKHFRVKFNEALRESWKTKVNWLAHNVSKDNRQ
# PI3Kδ, sequence (P27986 whole entry partner): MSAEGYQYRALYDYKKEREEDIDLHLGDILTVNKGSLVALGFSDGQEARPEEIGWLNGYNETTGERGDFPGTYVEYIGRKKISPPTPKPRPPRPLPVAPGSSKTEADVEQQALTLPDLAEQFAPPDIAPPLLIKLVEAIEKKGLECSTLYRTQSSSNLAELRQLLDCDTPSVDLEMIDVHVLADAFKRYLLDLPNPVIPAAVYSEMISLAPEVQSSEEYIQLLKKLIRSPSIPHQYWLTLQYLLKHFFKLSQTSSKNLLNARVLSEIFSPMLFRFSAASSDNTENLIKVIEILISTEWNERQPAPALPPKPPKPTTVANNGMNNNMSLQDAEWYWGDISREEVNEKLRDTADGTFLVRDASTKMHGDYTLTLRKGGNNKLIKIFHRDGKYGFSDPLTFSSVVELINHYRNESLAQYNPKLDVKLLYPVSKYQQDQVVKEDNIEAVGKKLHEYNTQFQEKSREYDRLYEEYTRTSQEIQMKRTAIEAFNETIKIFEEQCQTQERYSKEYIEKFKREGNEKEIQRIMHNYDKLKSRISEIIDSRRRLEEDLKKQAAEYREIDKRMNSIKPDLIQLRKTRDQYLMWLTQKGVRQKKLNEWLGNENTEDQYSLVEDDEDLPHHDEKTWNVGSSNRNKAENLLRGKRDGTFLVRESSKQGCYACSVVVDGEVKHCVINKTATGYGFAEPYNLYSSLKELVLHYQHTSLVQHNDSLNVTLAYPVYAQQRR
row,IC50,SMILES
1,≤ 0.1 µM,"Cc1nn(C(C)c2cc(Cl)c(F)c3c2OC(C)CN(C2CN(C(=O)OC(C)(C)C)C2)C3)c2ncnc(N)c12 (single isomer, unassigned) [Example 26, tert-Butyl 3-[9-[1-(4-amino-3-methyl-1H-pyrazolo[3,4-d]pyrimidin-1-yl)ethyl]-7-chloro-6-fluoro-2-methyl-2,3-dihydro-1,4-benzoxazepin-4(5H)-yl]azetidine-1-carboxylate]"
2,> 0.8 µM,"CC(=O)N1CC(N2Cc3c(F)c(Cl)cc(C(C)n4nc(C)c5c(N)ncnc54)c3OC(C)C2)C1 (single isomer, unassigned) [Example 31, 1-{1-[4-(1-Acetylazetidin-3-yl)-7-chloro-6-fluoro-2-methyl-2,3,4,5-tetrahydro-1,4-benzoxazepin-9-yl]ethyl}-3-methyl-1H-pyrazolo[3,4-d]pyrimidin-4-amine]"
3,0.1 to 0.5 µM,"CC(=O)N1CC(N2Cc3c(F)c(Cl)cc(C(C)n4nc(C)c5c(N)ncnc54)c3OC(C)C2)C1 (single isomer, unassigned) [Example 33, 1-{1-[4-(1-Acetylazetidin-3-yl)-7-chloro-6-fluoro-2-methyl-2,3,4,5-tetrahydro-1,4-benzoxazepin-9-yl]ethyl}-3-methyl-1H-pyrazolo[3,4-d]pyrimidin-4-amine]"
4,≤ 0.1 µM,"Cc1nn(C(C)c2cc(Cl)c(F)c3c2OC[C@H](C)N(S(C)(=O)=O)C3)c2ncnc(N)c12 (single isomer, unassigned) [Example 35]"
5,0.5 to 1 µM,"Cc1nn(C(C)c2cc(Cl)c(F)c3c2OC[C@H](C)N(S(C)(=O)=O)C3)c2ncnc(N)c12 (single isomer, unassigned) [Example 36]"
6,> 0.8 µM,"Cc1nn(C(C)c2cc(Cl)c(F)c3c2OC(C)CN(S(C)(=O)=O)C3)c2ncnc(N)c12 (single isomer, unassigned) [Example 38, 1-{1-[7-Chloro-6-fluoro-2-methyl-4-(methylsulfonyl)-2,3,4,5-tetrahydro-1,4-benzoxazepin-9-yl]ethyl}-3-methyl-1H-pyrazolo[3,4-d]pyrimidin-4-amine]"
7,> 0.8 µM,"Cc1nn(C(C)c2cc(Cl)c(F)c3c2OC(C)CN(S(C)(=O)=O)C3)c2ncnc(N)c12 (single isomer, unassigned) [Example 39, 1-{1-[7-Chloro-6-fluoro-2-methyl-4-(methylsulfonyl)-2,3,4,5-tetrahydro-1,4-benzoxazepin-9-yl]ethyl}-3-methyl-1H-pyrazolo[3,4-d]pyrimidin-4-amine]"
8,≤ 0.1 µM,"Cc1nn(C(C)c2cc(Cl)c(F)c3c2O[C@@H](C)CN(C2CC(C(N)=O)C2)C3)c2ncnc(N)c12 (single isomer, unassigned) [Example 44]"
9,0.1 to 0.5 µM,"CC(=O)N1CC(N2Cc3c(C#N)c(Cl)cc(C(C)n4nc(C)c5c(N)ncnc54)c3OC(C)C2)C1 (single isomer, unassigned) [Example 48, 4-(1-Acetylazetidin-3-yl)-9-[1-(4-amino-3-methyl-1H-pyrazolo[3,4-d]pyrimidin-1-yl)ethyl]-7-chloro-2-methyl-2,3,4,5-tetrahydro-1,4-benzoxazepine-6-carbonitrile]"
10,≤ 0.1 µM,"Cc1nn(C(C)c2cc(Cl)c(C#N)c3c2OC(C)CN(C2CN(CC(N)=O)C2)C3)c2ncnc(N)c12 (single isomer, unassigned) [Example 50, 2-{3-[9-[1-(4-Amino-3-methyl-1H-pyrazolo[3,4-d]pyrimidin-1-yl)ethyl]-7-chloro-6-cyano-2-methyl-2,3-dihydro-1,4-benzoxazepin-4(5H)-yl]azetidin-1-yl}acetamide]"
11,≤ 0.1 µM,"Cc1nn(C(C)c2cc(Cl)c(C#N)c3c2OC(C)CN(C2CN(CC(N)=O)C2)C3)c2ncnc(N)c12 (single isomer, unassigned) [Example 51, 2-{3-[9-[1-(4-Amino-3-methyl-1H-pyrazolo[3,4-d]pyrimidin-1-yl)ethyl]-7-chloro-6-cyano-2-methyl-2,3-dihydro-1,4-benzoxazepin-4(5H)-yl]azetidin-1-yl}acetamide]"
12,≤ 0.1 µM,"Cc1nn(C(C)c2cc(Cl)c(C#N)c3c2OC(C)CN(C2CN(CC(N)=O)C2)C3)c2ncnc(N)c12 (single isomer, unassigned) [Example 53, 2-{3-[9-[1-(4-Amino-3-methyl-1H-pyrazolo[3,4-d]pyrimidin-1-yl)ethyl]-7-chloro-6-cyano-2-methyl-2,3-dihydro-1,4-benzoxazepin-4(5H)-yl]azetidin-1-yl}acetamide]"
13,≤ 0.1 µM,"Cc1nn(C(C)c2cc(Cl)c(C#N)c3c2OC(C)CN(C2CN(CC(C)(C)O)C2)C3)c2ncnc(N)c12 (single isomer, unassigned) [Example 54, 9-[1-(4-Amino-3-methyl-1H-pyrazolo[3,4-d]pyrimidin-1-yl)ethyl]-7-chloro-4-[1-(2-hydroxy-2-methylpropyl)azetidin-3-yl]-2-methyl-2,3,4,5-tetrahydro-1,4-benzoxazepine-6-carbonitrile]"
14,≤ 0.1 µM,"Cc1nn(C(C)c2cc(Cl)c(C#N)c3c2OC(C)CN(C2CN(CC(C)(C)O)C2)C3)c2ncnc(N)c12 (single isomer, unassigned) [Example 55, 9-[1-(4-Amino-3-methyl-1H-pyrazolo[3,4-d]pyrimidin-1-yl)ethyl]-7-chloro-4-[1-(2-hydroxy-2-methylpropyl)azetidin-3-yl]-2-methyl-2,3,4,5-tetrahydro-1,4-benzoxazepine-6-carbonitrile]"
15,≤ 0.1 µM,"Cc1nn(C(C)c2cc(Cl)c(C#N)c3c2OC(C)CN(Cc2cccnc2)C3)c2ncnc(N)c12 (single isomer, unassigned) [Example 59, 9-[1-(4-Amino-3-methyl-1H-pyrazolo[3,4-d]pyrimidin-1-yl)ethyl]-7-chloro-2-methyl-4-(pyridin-3-ylmethyl)-2,3,4,5-tetrahydro-1,4-benzoxazepine-6-carbonitrile]"
16,≤ 0.1 µM,"Cc1nn(C(C)c2cc(Cl)c(C#N)c3c2OC(C)CN(Cc2cccnc2)C3)c2ncnc(N)c12 (single isomer, unassigned) [Example 60, 9-[1-(4-Amino-3-methyl-1H-pyrazolo[3,4-d]pyrimidin-1-yl)ethyl]-7-chloro-2-methyl-4-(pyridin-3-ylmethyl)-2,3,4,5-tetrahydro-1,4-benzoxazepine-6-carbonitrile]"
17,> 0.8 µM,"Cc1nn(C(C)c2cc(Cl)c(C#N)c3c2OC(C)CN(CCO)C3)c2ncnc(N)c12 (single isomer, unassigned) [Example 61, 9-[1-(4-Amino-3-methyl-1H-pyrazolo[3,4-d]pyrimidin-1-yl)ethyl]-7-chloro-4-(2-hydroxyethyl)-2-methyl-2,3,4,5-tetrahydro-1,4-benzoxazepine-6-carbonitrile]"
18,0.1 to 0.5 µM,"Cc1nn(C(C)c2cc(Cl)c(C#N)c3c2OC(C)CN(CCO)C3)c2ncnc(N)c12 (single isomer, unassigned) [Example 64, 9-[1-(4-Amino-3-methyl-1H-pyrazolo[3,4-d]pyrimidin-1-yl)ethyl]-7-chloro-4-(2-hydroxyethyl)-2-methyl-2,3,4,5-tetrahydro-1,4-benzoxazepine-6-carbonitrile]"
19,≤ 0.1 µM,"Cc1nn(C(C)c2cc(Cl)c(C#N)c3c2OC(C)CN(CC(C)(C)O)C3)c2ncnc(N)c12 (single isomer, unassigned) [Example 65, 9-[1-(4-Amino-3-methyl-1H-pyrazolo[3,4-d]pyrimidin-1-yl)ethyl]-7-chloro-4-(2-hydroxy-2-methylpropyl)-2-methyl-2,3,4,5-tetrahydro-1,4-benzoxazepine-6-carbonitrile]"
